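Tested at 5 concentrations; 48 h exposure; 96-well plates; endpoints linearly interpolated, else capped at highest concentration. Here, GI50 denotes the concentration required for 50% inhibition of growth. TGI: concentration producing complete growth inhibition.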
What was measured:
Assay in all cases: inhibition of tumour cell growth, NCI panel, 48 h
HOP-92 NSCLC = tested on: HOP-92 NSCLC
K-562 leukemia = tested on: K-562 leukemia
LOX IMVI melanoma = tested on: LOX IMVI melanoma
M14 melanoma = tested on: M14 melanoma
NCI-H522 lung = tested on: NCI-H522 lung
RPMI-8226 leukemia = tested on: RPMI-8226 leukemia
U251 CNS = tested on: U251 CNS
UACC-62 melanoma = tested on: UACC-62 melanoma
DU-145 prostate = tested on: DU-145 prostate
MDA-MB-435 = tested on: MDA-MB-435

CCC[CH2][Sn]([CH2]CCC)([O]C(=O)/C=C/c1ccccc1F)[O]C(=O)/C=C/c1ccccc1F
GI50 (HOP-92 NSCLC): 0.415 µM | TGI (HOP-92 NSCLC): 1.37 µM | GI50 (K-562 leukemia): 0.232 µM | TGI (K-562 leukemia): 1.4 µM | GI50 (LOX IMVI melanoma): 0.289 µM | TGI (LOX IMVI melanoma): 0.906 µM | GI50 (M14 melanoma): 0.873 µM | TGI (M14 melanoma): 2.22 µM | GI50 (NCI-H522 lung): 0.0798 µM | TGI (NCI-H522 lung): 0.185 µM | GI50 (RPMI-8226 leukemia): 0.222 µM | TGI (RPMI-8226 leukemia): 1.2 µM | GI50 (U251 CNS): 0.511 µM | TGI (U251 CNS): 1.41 µM | GI50 (UACC-62 melanoma): 1.17 µM | TGI (UACC-62 melanoma): 2.59 µM

O=C(O)[C@@H](NS(=O)(=O)c1ccc2ccccc2c1)c1ccccc1
TGI (HOP-92 NSCLC): > 100 µM | TGI (K-562 leukemia): > 100 µM | TGI (LOX IMVI melanoma): > 100 µM | TGI (M14 melanoma): > 100 µM | TGI (NCI-H522 lung): > 100 µM | TGI (RPMI-8226 leukemia): > 100 µM | TGI (U251 CNS): > 100 µM | TGI (UACC-62 melanoma): > 100 µM

COc1cc(C2CC(=O)Nc3c2cc(Br)c2ccccc32)cc(Br)c1OC (stereo not given)
GI50 (DU-145 prostate): 6.38 µM | TGI (DU-145 prostate): > 100 µM | GI50 (HOP-92 NSCLC): 1 µM | TGI (HOP-92 NSCLC): 7.07 µM | GI50 (K-562 leukemia): 0.493 µM | TGI (K-562 leukemia): 20.5 µM | GI50 (LOX IMVI melanoma): 1.65 µM | TGI (LOX IMVI melanoma): > 100 µM | GI50 (M14 melanoma): 1.08 µM | TGI (M14 melanoma): > 100 µM | GI50 (MDA-MB-435): 0.247 µM | TGI (MDA-MB-435): 0.864 µM | GI50 (RPMI-8226 leukemia): 3.71 µM | TGI (RPMI-8226 leukemia): > 100 µM | GI50 (U251 CNS): 1.42 µM | TGI (U251 CNS): 3.7 µM | GI50 (UACC-62 melanoma): 1.64 µM | TGI (UACC-62 melanoma): > 100 µM

Nc1cc2cccc[n+]2c2cccc(Cl)c12
GI50 (DU-145 prostate): 46.4 µM | GI50 (HOP-92 NSCLC): 51 µM | GI50 (K-562 leukemia): 11.2 µM | GI50 (M14 melanoma): 36.4 µM | GI50 (MDA-MB-435): 25.8 µM | TGI (MDA-MB-435): 72.2 µM | GI50 (NCI-H522 lung): 16.2 µM | TGI (NCI-H522 lung): 78 µM | GI50 (RPMI-8226 leukemia): 21.3 µM | GI50 (U251 CNS): 6.36 µM | TGI (U251 CNS): 33.8 µM | GI50 (UACC-62 melanoma): 24.7 µM | TGI (UACC-62 melanoma): 59.8 µM

N.N.N.N.N.O=S(=O)([O-])C(F)(F)F.O=S(=O)([O-])C(F)(F)F.[Os+8]
GI50 (HOP-92 NSCLC): 14.8 µM | TGI (HOP-92 NSCLC): 35.8 µM | GI50 (K-562 leukemia): 7.51 µM | TGI (K-562 leukemia): 61.5 µM | GI50 (LOX IMVI melanoma): 4.74 µM | TGI (LOX IMVI melanoma): 20 µM | GI50 (M14 melanoma): 14.2 µM | TGI (M14 melanoma): 28.7 µM | GI50 (RPMI-8226 leukemia): 8.7 µM | TGI (RPMI-8226 leukemia): > 100 µM | GI50 (U251 CNS): 9.22 µM | TGI (U251 CNS): 32.5 µM | GI50 (UACC-62 melanoma): 12.1 µM | TGI (UACC-62 melanoma): 28.2 µM

COC/N=C(/N)NC#N
TGI (HOP-92 NSCLC): > 100 µM | TGI (K-562 leukemia): > 100 µM | TGI (M14 melanoma): > 100 µM | TGI (NCI-H522 lung): > 100 µM | TGI (RPMI-8226 leukemia): > 100 µM | TGI (U251 CNS): > 100 µM | TGI (UACC-62 melanoma): > 100 µM

Nc1ccc(C(=O)N/C(=C\c2cccc([N+](=O)[O-])c2)c2nc3ccc(Cl)cc3[nH]2)cc1
TGI (HOP-92 NSCLC): 75.8 µM | TGI (K-562 leukemia): > 100 µM | TGI (M14 melanoma): > 100 µM | TGI (NCI-H522 lung): > 100 µM | TGI (U251 CNS): > 100 µM | TGI (UACC-62 melanoma): > 100 µM

COc1ccc(Cc2nc3ccccc3s2)cc1OC
TGI (HOP-92 NSCLC): 36.5 µM | TGI (K-562 leukemia): 49.6 µM | TGI (M14 melanoma): 31.6 µM | TGI (NCI-H522 lung): 32.2 µM | TGI (RPMI-8226 leukemia): 70.9 µM | TGI (U251 CNS): 27.7 µM | TGI (UACC-62 melanoma): 31.4 µM

Cc1nc2c(sc(=S)n2-c2ccccc2)c2nc3ccccc3n12
TGI (K-562 leukemia): > 100 µM | TGI (LOX IMVI melanoma): > 100 µM | TGI (M14 melanoma): > 100 µM | TGI (NCI-H522 lung): > 100 µM | TGI (RPMI-8226 leukemia): > 100 µM | TGI (U251 CNS): > 100 µM | TGI (UACC-62 melanoma): > 100 µM

CC(=O)[CH-]C(=O)Nc1ccccc1.CC(=O)[CH-]C(=O)Nc1ccccc1.CC[O-].CC[O-].[Ti+4]
GI50 (HOP-92 NSCLC): > 100 µM | TGI (HOP-92 NSCLC): > 100 µM | GI50 (K-562 leukemia): > 100 µM | TGI (K-562 leukemia): > 100 µM | GI50 (LOX IMVI melanoma): > 100 µM | TGI (LOX IMVI melanoma): > 100 µM | GI50 (M14 melanoma): > 100 µM | TGI (M14 melanoma): > 100 µM | GI50 (NCI-H522 lung): > 100 µM | TGI (NCI-H522 lung): > 100 µM | GI50 (U251 CNS): > 100 µM | TGI (U251 CNS): > 100 µM | GI50 (UACC-62 melanoma): > 100 µM | TGI (UACC-62 melanoma): > 100 µM
